A short description of series [1]: Solubility in water. Format: physicochemical.
Series [2] in a line: Acute toxicity, SWISS mouse (median lethal dose). The conditions noted are these: in vivo, read-out: Median lethan dose. How it is done:
(§1) The toxicities which are acute with the SWISS mouse and chronic with the albino rat are determined according to the usual standardized protocols.

Series [3] has as its system TG 180 strain. Kind of series: In vivo antitumoral test with the mouse, first experiment. Also on record: species or system SWISS mouse. The conditions noted are these: for number of survivors (tumor +) / number of survivors (tumor -) / number of animals with tumors: 15 mice per batch; for number of survivors (tumor +) / number of survivors (tumor -): compounds I to V alternately with CP and interferon; for number of animals with tumors: compounds I to V alternately with CP and interferon (0.5 ml of 8 mmolar solution), three weeks; for antitumoral therapeutic efficiency: with respect to reference batches No. 1, 2, 3 and 4, in words. How it is done: (3) In vivo antitumoral tests with the mouse.
The studies on the antitumoral properties have been carried out with the mouse according the CHANY and CERRUTI protocol (Int. J. Cancer, 1982, 30, 489) on the hereabove compounds I to V.
In order to obtain a tumor or tumors with mice, one uses the TG 180 strain (injection via the i.p. route of 10^6 cells for a male mouse of 25 g and of 0.1 ml of a solution of Corynbacterium Parvum Merieux (CP)).
This experiment bears on 135 SWISS mice devided into 9 batches of 15 mice each. After injection on day D0 of the TG 180 and CP cells, one proceeds in the following manner:
The reference batch No. 1 is treated every day with an injection of placebo.
The reference batch No. 2 is treated every day with an injection of CP (0.1 ml).
The reference batch No. 3 is treated every day with an injection of interferon EAT-113, 0.5 ml.
The reference batch No. 4 is treated every day alternately with CP and with interferon EAT-113, with the same doses as hereabove.
The experimental batches are treated, alternately on day D+1 with the compound according to the invention (0.5 ml of an 8 mmolar solution of a compound I to V), on day D+2 with interferon EAT-113, on day D+3 with CP, and this for three weeks.
The number of survivors is noted, as well as the presence or not of a tumor (tumor+ or tumor-) in the survivors five weeks after day D0.

In series [4] the test system is rat. Kind of series: Lethality in the rat. Type of series: in vivo. The conditions noted are these: administration of 1.12 g/kg to the rat. How it is done:
as §1

Series [5] has as its system TG 180 strain. Kind of series: In vivo antitumoral test with the mouse, first experiment. Also on record: species or system SWISS mouse. The settings on record: 15 mice per batch; compounds I to V alternately with CP and interferon.
The subject of series [6] is neoplasic mammary cells (strain NCF 410). Kind of series: In vitro action on neoplasic mammary cells. Type of series: cell-based. The conditions noted are these: association with interferon EAT-113; in words.
Series [7] relates to TG 180 strain. Nature of the series: In vivo antitumoral test with the mouse, second experiment (dose effect).
Series [8] deals with cells infected by the murine AIDS TR-26 virus. Nature of the series: In vitro action on cells infected by murine AIDS virus. Type of series: cell-based. The conditions noted are these: in words.
The subject of series [9] is Herpes hominis type II virus. The conditions noted are these: in vivo, with interferon EAT-113; in words.
Series [10] is described as follows: Solubilizing of the products for the in vivo antitumoral test. Format: physicochemical. The settings on record: explanation for the small number of survivors; in words.
In series [11] the test system is rat. The settings on record: Merck Index 10th edition; cited from earlier work.
The subject of series [12] is TG 180 strain. The conditions noted are these: mouse; cited from earlier work.
The test system of series [13] is man. The conditions noted are these: massive dose; Brazier et al; in words; cited from earlier work.
The conditions of series [14]: rabbit, i.v. 0.12 g/kg, t=60 min; cited from earlier work.
For series [15], the system named is herpes virus. The conditions noted are these: in words; cited from earlier work.
Series [16] has as its system fibroblasts. The settings on record: in words; cited from earlier work.

Like-named read-outs stand apart in the source and are kept apart here.

With `CCCC(=O)O[C@@H]1[C@H]2OC(C)(C)O[C@H]2O[C@@H]1[C@H]1COC(C)(C)O1` [Compound I, O-butanoyl-3-di-O-isopropylidene 1,2: 5,6 α-D-glucofuranose], in [1] (in words), the solubility in water result is reported as “slightly soluble in water”. Moreover, in [2] (ip), the LD50 was found to be 1750 ± 390 mg/kg. Besides, the LD50 in series [2] (oral route) was more than 8000 mg/kg. Besides, in [3], the “number of survivors (tumor +)” value is 3, the “number of survivors (tumor -)” value is 7, the “number of animals with tumors” value is reported as 9 and the antitumoral therapeutic efficiency result is on record as “very good antitumoral therapeutic efficiency”. For the same compound, the lethality entry in series [4] is given as “does not cause any lethality”. Besides, the “number of survivors after 6 weeks” value in [5] amounted to 10.

`CCCC(=O)O[C@@H]1[C@H]2OC(C)(C)O[C@H]2O[C@@H]1[C@H](O)CO` [Compound II]: the “in vitro action compared with arginine butyrate and interferon EAT-113” value in [6] was “stronger than the association of arginine butyrate and interferon EAT-113”. For the same compound, the solubility (usually how much of the substance goes into solution per volume) in [1] (water, room temperature) is more than 100 mg/mL. In series [2] (ip), the LD50 stood at 4200 ± 400 mg/kg. In addition, in series [2] (oral route), the LD50 is more than 8000 mg/kg. Besides, in [7] (administered alternately with CP and interferon, whatever the concentration between 0.25 and 50 mmol/l), the “survival after 100 days” value is listed as 30 mice amongst 45. For the same compound, in series [7] (alternately with CP, interferon omitted, average, 0.5 to 50 millimoles/l), the “number of surviving mice after 100 days” value is 20 mice amongst 45. Also, in series [7] (compound II plus CP, no interferon, in words), the “therapeutic results of the association with CP alone compared with interferon, CP plus arginine butyrate” value is given as “as good as the association of interferon with CP plus arginine butyrate”. Further, the “dose sufficient for obtaining the maximum therapeutic effect” value in series [7] (mouse) is given as ≤ 0.44 mg of potential n-butyric acid per kilogramme of mouse. For the same compound, the “action in vitro compared with arginine butyrate” value in series [8] is “stronger action in vitro on the cells infected by the murine AIDS TR-26 virus than the arginine butyrate”. Besides, in series [3], the “number of survivors (tumor +)” value was determined as 0, the “number of survivors (tumor -)” value is on record as 9, the “number of animals with tumors” value came to 10 and the antitumoral therapeutic efficiency entry was “very good antitumoral therapeutic efficiency”. For the same compound, in series [5], the “number of survivors after 6 weeks” value came out at 9. The “potentialization of the action of interferon EAT-113” value in series [9] is “potentialization of the action of interferon EAT-113 on the Herpes hominis type II virus”.

As to `CCCC(=O)OC[C@@H](O)[C@H]1O[C@@H]2OC(C)(C)O[C@@H]2[C@H]1O` [III, O-butanoyl-6-O-isopropylidene-1,2α-D-glucofuranose], the LD50 in series [2] (ip) is 3000 ± 350 mg/kg. Besides, in [2] (oral route), the LD50 is more than 8000 mg/kg. Also, in series [3], the “number of survivors (tumor +)” value is 3, the “number of survivors (tumor -)” value was 8, the “number of animals with tumors” value was 7 and the antitumoral therapeutic efficiency entry is listed as “very good antitumoral therapeutic efficiency”. Further, in series [5], the “number of survivors after 6 weeks” value worked out at 11.

For the compound `CCCC(=O)OC[C@@H](OC(=O)CCC)[C@H]1O[C@@H]2OC(C)(C)O[C@@H]2[C@H]1OC(=O)CCC` [IV, tri-O-butanoyl 3,5,6-O-isopropylidene-1,2 α-D-glucofuranose], in series [2] (ip), the LD50 is more than 8000 mg/kg. Besides, in series [2] (oral route), the LD50 is more than 8000 mg/kg. In series [3], the “number of survivors (tumor +)” value amounted to 0, the “number of survivors (tumor -)” value is listed as 3 and the “number of animals with tumors” value worked out at 13. Further, in series [5], the “number of survivors after 6 weeks” value was 3. In addition, the solubilizing result in [10] was “difficulties for solubilizing these products”.

Regarding `CCCC(=O)OCC(O)CO` (centres unmarked) [IX, O-n-butanoyl-1, propane diol-2,3], the LD50 is 2250 ± 230 mg/kg in series [2] (ip) and more than 8000 mg/kg in series [2] (oral route).

With `CCCC(=O)OC[C@H]1O[C@@H]2OC(C)(C)O[C@@H]2[C@H]2OC(C)(C)O[C@H]21` [V, O-n-butanoyl-6 di-O-isopropylidene-1,2:3,4α-D-galactopyranose], the LD50 in series [2] (ip) stood at 2500 ± 400 mg/kg. Further, the LD50 in [2] (oral route) is more than 8000 mg/kg. In series [3], the “number of survivors (tumor +)” value stood at 0, the “number of survivors (tumor -)” value worked out at 3 and the “number of animals with tumors” value was found to be 12. In [5], the “number of survivors after 6 weeks” value worked out at 3. The solubilizing entry in series [10] was “difficulties for solubilizing these products”.

Consider `CCCC(=O)OC[C@H]1OC(OC(=O)CCC)[C@H](OC(=O)CCC)[C@@H](OC(=O)CCC)[C@H]1OC(=O)CCC` (stereo partly drawn) [VI, penta O-n-butanoyl-1,2,3,4,6 D-galactopyranose], for which the LD50 in series [2] (ip) and in series [2] (oral route) was more than 8000 mg/kg in each case.

In the case of `CCCC(=O)OC[C@H]1OC(OC(=O)CCC)[C@H](OC(=O)CCC)[C@@H](OC(=O)CCC)[C@@H]1OC(=O)CCC` (stereo partly drawn) [VII, penta- O-n-butanoyl-1,2,3,4,6 D-glucopyranose], the LD50 in series [2] (ip) and in [2] (oral route) was more than 8000 mg/kg in each case.

Take `CCCC(=O)OCC1COC(C)(C)O1` (centres unmarked) [VIII, O-n-butanoyl-1-isopropylidene-2,3-glyceryl]: the LD50 in series [2] (ip) is 5400 ± 300 mg/kg; in series [2] (oral route) it was more than 8000 mg/kg.

With `CCCCCCCCCCCCCCCC(=O)OCC(COC(=O)CCC)OC(=O)CCCCCCCCCCCCCCC` (centres unmarked) [X, O-butanoyl-3-di-O-palmitoyl-1,2 glyceryl], the LD50 in [2] (ip) is more than 2000 mg/kg; in series [2] (oral route), more than 6000 mg/kg.

As for `CCCCCCCCCCCCCCCC(=O)OCC(COC(=O)CCC)OC(=O)CCC` (centres unmarked) [XI, di-O-butanoyl-2,3 O-palmitoyl-1-glyceryl], the LD50 in [2] (ip) and in series [2] (oral route) was more than 8000 mg/kg in each case.

For the compound `CC(C)=O` [acetone], the “median lethal dose p.o.” value in [11] is 10.7 mL/kg.

For the compound `CCCC(=O)O` [arginine n-butyrate], in series [7] (association of CP plus arginine butyrate without interferon), the “surviving mice after 100 days” value came to 8 mice amongst 45. Also, in series [7] (association of CP plus arginine butyrate without interferon, in words), the therapeutic efficiency entry was “low therapeutic efficiency”. In addition, in series [12], the optimal dose advocated is recorded as 14 mg of butyric acid. In series [13], the “side effects in man” value was “side effects in man, of the hyperammoniemy type with a reduction of the insulin secretion and disturbances of the urea cycle and of glucose metabolism”. Further, in series [14], the “n-butyric acid present in serum” value is 0 mmol/L.

As for `CCCC(=O)[O-].[Na+]` [sodium n-butyrate], the antiviral actions result in series [15] is “antiviral actions of sodium butyrate have also been characterized for the herpes virus”. Moreover, the “inhibiting actions on the growth of fibroblasts” value in [16] is given as “interesting inhibiting actions on the growth of fibroblasts”.

(Values after patent US5185436A, “Esters of normal butyric acid and their use as pharmaceuticals” (priority 1990, dated 1993).)
